Data: PubChem BioAssay AID1963979 (Molecular Pharmacology Branch, DTP, NCI, 2024)
Each block holds one molecule with its values, some of them ahead of it.

System: 361931-004-R-J1-PDC multicell spheroid viability
Experiment: Anticancer human tumor 361931-004-R-J1-PDC patient-derived colon adenocarcinoma cell line growth inhibition [PI3K]
Conditions: for IC50: curve of first compound; for viability, T/C: stronger effect = lower value
Procedure, shortened: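 Viability of mixed-cell spheroids was determined after exposure to pairwise combinations, one partner being inavolisib, alpelisib, duvelisib or copanlisib. Highest tested concentration matched clinical Cmax where known and 10 microM where not, descending in half-log steps.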

[1] = second compound 0.0316 µM, first compound 0.0316 µM
[2] = second compound 0.0316 µM, first compound 0.1 µM
[3] = second compound 0.0316 µM, first compound 0.316 µM
[4] = second compound 0.0316 µM, first compound 1 µM
[5] = second compound 0.0316 µM, first compound 3.16 µM
[6] = second compound 0.0316 µM, first compound 10 µM
[7] = second compound 0.1 µM, first compound 0.0316 µM
[8] = second compound 0.1 µM, first compound 0.1 µM
[9] = second compound 0.1 µM, first compound 0.316 µM
[10] = second compound 0.1 µM, first compound 1 µM
[11] = second compound 0.1 µM, first compound 3.16 µM
[12] = second compound 0.1 µM, first compound 10 µM
[13] = second compound 0.316 µM, first compound 0.0316 µM
[14] = second compound 0.316 µM, first compound 0.1 µM
[15] = second compound 0.316 µM, first compound 0.316 µM
[16] = second compound 0.316 µM, first compound 1 µM
[17] = second compound 0.316 µM, first compound 3.16 µM
[18] = second compound 0.316 µM, first compound 10 µM
[19] = second compound 1 µM, first compound 0.0316 µM
[20] = second compound 1 µM, first compound 0.1 µM
[21] = second compound 1 µM, first compound 0.316 µM
[22] = second compound 1 µM, first compound 1 µM
[23] = second compound 1 µM, first compound 3.16 µM
[24] = second compound 1 µM, first compound 10 µM
[25] = second compound 3.16 µM, first compound 0.0316 µM
[26] = second compound 3.16 µM, first compound 0.1 µM
[27] = second compound 3.16 µM, first compound 0.316 µM
[28] = second compound 3.16 µM, first compound 1 µM
[29] = second compound 3.16 µM, first compound 3.16 µM
[30] = second compound 3.16 µM, first compound 10 µM
[31] = second compound 10 µM, first compound 0.0316 µM
[32] = second compound 10 µM, first compound 0.1 µM
[33] = second compound 10 µM, first compound 0.316 µM
[34] = second compound 10 µM, first compound 1 µM
[35] = second compound 10 µM, first compound 3.16 µM
[36] = second compound 10 µM, first compound 10 µM
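Also: spheroids exposed to agents for seven days before readout.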

IC50 (second compound 0.0316 µM): > 10 µM
IC50 (second compound 0.1 µM): > 10 µM
IC50 (second compound 0.316 µM): > 10 µM
IC50 (second compound 1 µM): > 10 µM
IC50 (second compound 3.16 µM): > 10 µM
IC50 (second compound 10 µM): > 10 µM
SMILES: CC(Cn1ccc(-c2ccc(C#N)c(Cl)c2)n1)NC(=O)c1cc(C(C)O)[nH]n1 (centres undefined) + Cc1nc(NC(=O)N2CCCC2C(N)=O)sc1-c1ccnc(C(C)(C)C(F)(F)F)c1
viability, T/C [1]: 102%
viability, T/C [2]: 102%
viability, T/C [3]: 96.3%
viability, T/C [4]: 100%
viability, T/C [5]: 107%
viability, T/C [6]: 98.7%
viability, T/C [7]: 105%
viability, T/C [8]: 105%
viability, T/C [9]: 99.1%
viability, T/C [10]: 113%
viability, T/C [11]: 109%
viability, T/C [12]: 101%
viability, T/C [13]: 98.5%
viability, T/C [14]: 113%
viability, T/C [15]: 95.6%
viability, T/C [16]: 105%
viability, T/C [17]: 98.9%
viability, T/C [18]: 91.5%
viability, T/C [19]: 95.4%
viability, T/C [20]: 102%
viability, T/C [21]: 87.4%
viability, T/C [22]: 96%
viability, T/C [23]: 97%
viability, T/C [24]: 84.2%
viability, T/C [25]: 87.4%
viability, T/C [26]: 81.3%
viability, T/C [27]: 90.7%
viability, T/C [28]: 83.6%
viability, T/C [29]: 94.4%
viability, T/C [30]: 79.4%
viability, T/C [31]: 68%
viability, T/C [32]: 68%
viability, T/C [33]: 72.8%
viability, T/C [34]: 62.4%
viability, T/C [35]: 59.8%
viability, T/C [36]: 53%

IC50 (second compound 0.0316 µM): 4.5 µM
IC50 (second compound 0.1 µM): 3.7 µM
IC50 (second compound 0.316 µM): 4.24 µM
IC50 (second compound 1 µM): 4.32 µM
IC50 (second compound 3.16 µM): 2.72 µM
IC50 (second compound 10 µM): < 0.0316 µM
SMILES: CC1(C)CCC(Nc2ncc(C(F)(F)F)c(-c3c[nH]c4c(P(C)(C)=O)c(C#N)ccc34)n2)CN1 (centres undefined) + Cc1nc(NC(=O)N2CCCC2C(N)=O)sc1-c1ccnc(C(C)(C)C(F)(F)F)c1
viability, T/C [1]: 97.1%
viability, T/C [2]: 82.6%
viability, T/C [3]: 79.9%
viability, T/C [4]: 79.9%
viability, T/C [5]: 71.3%
viability, T/C [6]: 5.89%
viability, T/C [7]: 101%
viability, T/C [8]: 92.8%
viability, T/C [9]: 84.9%
viability, T/C [10]: 78.5%
viability, T/C [11]: 59.7%
viability, T/C [12]: 7.04%
viability, T/C [13]: 89.8%
viability, T/C [14]: 84.4%
viability, T/C [15]: 74.8%
viability, T/C [16]: 70.6%
viability, T/C [17]: 69.1%
viability, T/C [18]: 5.97%
viability, T/C [19]: 76.5%
viability, T/C [20]: 68.6%
viability, T/C [21]: 65.2%
viability, T/C [22]: 80.4%
viability, T/C [23]: 65.8%
viability, T/C [24]: 6.15%
viability, T/C [25]: 73.5%
viability, T/C [26]: 62.5%
viability, T/C [27]: 59.5%
viability, T/C [28]: 57.5%
viability, T/C [29]: 51.4%
viability, T/C [30]: 4.43%
viability, T/C [31]: 49.1%
viability, T/C [32]: 51.9%
viability, T/C [33]: 44.9%
viability, T/C [34]: 44.1%
viability, T/C [35]: 39.5%
viability, T/C [36]: 1.98%
